Data: ChEMBL document CHEMBL5338767, “A Molecular Toolbox of Positron Emission Tomography Tracers for General Anesthesia Mechanism Research” (J Med Chem, 2023)

What was measured:
[1] = Lipophilicity, logD of compound at pH 7; conditions: buffer
[2] = Lipophilicity, logP of the compound; conditions: octanol/water
[3] = Dissociation constant, pKa of the compound; assay type: physicochemical
[4] = molecular target: Neuronal acetylcholine receptor; alpha6/beta2 (Homo sapiens, UniProt P17787+Q15825); assay: Binding affinity to nACh alpha6beta2 receptor (unknown origin) assessed as inhibition constant; assay type: protein-complex assay
[5] = molecular target: Glutamate NMDA receptor; GRIN1/GRIN2A (Homo sapiens, UniProt Q05586+Q12879); assay: Binding affinity to GluN1/GluN2A receptor (unknown origin) assessed as inhibition constant; assay type: protein-complex assay
[6] = Lipophilicity, logD of compound at pH 7.4; assay type: physicochemical; conditions: buffer
[7] = molecular target: T1, Gamma-aminobutyric acid receptor subunit alpha-5 (Homo sapiens, UniProt P31644); assay: Binding affinity to GABAa alpha5 (unknown origin) assessed as inhibition constant
T1 sequence (P31644 whole entry): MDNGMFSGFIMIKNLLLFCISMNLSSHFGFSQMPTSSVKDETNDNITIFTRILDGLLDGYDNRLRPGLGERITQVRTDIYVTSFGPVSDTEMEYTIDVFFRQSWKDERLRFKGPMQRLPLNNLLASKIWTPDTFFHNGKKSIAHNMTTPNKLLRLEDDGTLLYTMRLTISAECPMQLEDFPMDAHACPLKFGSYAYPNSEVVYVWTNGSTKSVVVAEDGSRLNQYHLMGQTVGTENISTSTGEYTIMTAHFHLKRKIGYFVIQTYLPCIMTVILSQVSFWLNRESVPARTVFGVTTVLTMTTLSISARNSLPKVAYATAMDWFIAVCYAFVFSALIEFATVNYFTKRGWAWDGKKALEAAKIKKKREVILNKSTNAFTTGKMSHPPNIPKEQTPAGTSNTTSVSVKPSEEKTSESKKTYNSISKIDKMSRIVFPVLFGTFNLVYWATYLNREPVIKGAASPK

[8] = Selectivity ratio of Ki for kappa opioid receptor (unknown origin) for Ki for delta opioid receptor (unknown origin)
[9] = Selectivity ratio of Ki for kappa opioid receptor (unknown origin) for Ki for mu opioid receptor (unknown origin)
[10] = molecular target: T2, Kappa-type opioid receptor (Homo sapiens, UniProt P41145); assay: Binding affinity to kappa opioid receptor (unknown origin) assessed as inhibition constant
[11] = Adrenal to liver ratio in rat measured at 60 mins; assay type: ADME, tissue-based; conditions: 1 h
[12] = Drug distribution in rhesus monkey temporal cortex assessed as maximum binding; assay type: ADME, tissue-based, Macaca mulatta
[13] = Half life in rhesus monkey; assay type: ADME, Macaca mulatta; conditions: in vivo
[14] = Drug distribution in rhesus monkey temporal cortex assessed as dissociation constant; assay type: ADME, tissue-based, Macaca mulatta
[15] = Drug distribution in rhesus monkey striatum assessed as maximum binding; assay type: ADME, tissue-based, Macaca mulatta
[16] = molecular target: T3, Gamma-aminobutyric acid receptor subunit alpha-1 (Homo sapiens, UniProt P14867); assay: Binding affinity to GABAa alpha1 (unknown origin) assessed as inhibition constant
T3 sequence (P14867 whole entry): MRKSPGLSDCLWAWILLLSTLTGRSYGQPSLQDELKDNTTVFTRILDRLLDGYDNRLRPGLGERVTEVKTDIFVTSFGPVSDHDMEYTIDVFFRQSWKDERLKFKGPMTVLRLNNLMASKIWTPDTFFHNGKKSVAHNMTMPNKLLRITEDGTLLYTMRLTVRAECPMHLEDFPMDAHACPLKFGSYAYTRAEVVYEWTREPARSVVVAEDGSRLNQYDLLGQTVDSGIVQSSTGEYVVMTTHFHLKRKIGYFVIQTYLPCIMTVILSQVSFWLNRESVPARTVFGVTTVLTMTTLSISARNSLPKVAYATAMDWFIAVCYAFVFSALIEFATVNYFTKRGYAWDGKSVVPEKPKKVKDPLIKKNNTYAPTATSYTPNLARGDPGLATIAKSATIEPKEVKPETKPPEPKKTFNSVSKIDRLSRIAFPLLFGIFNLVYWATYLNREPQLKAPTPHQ

[17] = Binding affinity to GABA/BZ receptor (unknown origin) assessed as inhibition constant; set-up: species or system Homo sapiens
[18] = molecular target: T4, Gamma-aminobutyric acid receptor subunit alpha-2 (Homo sapiens, UniProt P47869); assay: Binding affinity to GABAa alpha2 (unknown origin) assessed as inhibition constant
T4 sequence (P47869 whole entry): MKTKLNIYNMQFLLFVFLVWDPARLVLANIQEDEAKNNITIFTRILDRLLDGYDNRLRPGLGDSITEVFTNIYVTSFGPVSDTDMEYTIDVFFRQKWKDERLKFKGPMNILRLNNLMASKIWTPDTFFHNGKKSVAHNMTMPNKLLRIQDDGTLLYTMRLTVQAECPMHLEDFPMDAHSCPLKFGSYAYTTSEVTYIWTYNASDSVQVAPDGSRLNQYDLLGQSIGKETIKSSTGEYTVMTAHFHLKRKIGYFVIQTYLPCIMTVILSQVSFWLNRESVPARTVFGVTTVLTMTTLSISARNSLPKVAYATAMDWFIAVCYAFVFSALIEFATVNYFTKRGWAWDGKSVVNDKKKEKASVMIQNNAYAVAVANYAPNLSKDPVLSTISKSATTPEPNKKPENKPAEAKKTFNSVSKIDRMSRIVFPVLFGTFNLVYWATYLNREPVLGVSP

[19] = molecular target: T5, Gamma-aminobutyric acid receptor subunit alpha-3 (Homo sapiens, UniProt P34903); assay: Binding affinity to GABAa alpha3 (unknown origin) assessed as inhibition constant
T5 sequence (P34903 whole entry): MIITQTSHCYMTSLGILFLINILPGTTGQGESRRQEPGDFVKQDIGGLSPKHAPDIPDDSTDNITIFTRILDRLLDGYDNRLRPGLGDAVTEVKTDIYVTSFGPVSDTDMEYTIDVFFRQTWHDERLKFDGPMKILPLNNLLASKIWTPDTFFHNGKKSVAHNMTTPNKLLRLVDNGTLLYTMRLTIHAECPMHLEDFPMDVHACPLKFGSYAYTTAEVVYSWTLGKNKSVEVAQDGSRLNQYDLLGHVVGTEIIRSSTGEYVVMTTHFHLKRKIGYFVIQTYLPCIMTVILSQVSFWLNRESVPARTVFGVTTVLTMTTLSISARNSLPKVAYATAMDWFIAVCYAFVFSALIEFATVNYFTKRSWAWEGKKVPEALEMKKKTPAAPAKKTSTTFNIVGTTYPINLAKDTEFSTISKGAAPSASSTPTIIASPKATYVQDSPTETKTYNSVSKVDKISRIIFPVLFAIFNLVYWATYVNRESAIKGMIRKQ

[20] = molecular target: T2, Kappa-type opioid receptor; assay: Binding affinity to kappa opioid receptor (unknown origin)
Mu-type opioid receptor = Mu-type opioid receptor (Homo sapiens, UniProt P35372)
Mu-type opioid receptor, sequence (P35372 whole entry): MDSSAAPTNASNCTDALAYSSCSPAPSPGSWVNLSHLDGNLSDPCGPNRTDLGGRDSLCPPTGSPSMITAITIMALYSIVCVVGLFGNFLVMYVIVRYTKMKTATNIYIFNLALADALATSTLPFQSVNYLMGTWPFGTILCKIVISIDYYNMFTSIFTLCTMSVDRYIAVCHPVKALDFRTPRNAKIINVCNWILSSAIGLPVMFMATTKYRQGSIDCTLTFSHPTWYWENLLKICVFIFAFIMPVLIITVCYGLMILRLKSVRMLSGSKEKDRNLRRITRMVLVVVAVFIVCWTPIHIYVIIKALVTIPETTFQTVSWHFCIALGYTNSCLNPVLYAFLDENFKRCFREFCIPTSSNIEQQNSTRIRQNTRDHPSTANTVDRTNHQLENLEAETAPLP

Glutamate NMDA receptor; GRIN1/GRIN2A, sequence (Q12879 whole entry, other chains not shown): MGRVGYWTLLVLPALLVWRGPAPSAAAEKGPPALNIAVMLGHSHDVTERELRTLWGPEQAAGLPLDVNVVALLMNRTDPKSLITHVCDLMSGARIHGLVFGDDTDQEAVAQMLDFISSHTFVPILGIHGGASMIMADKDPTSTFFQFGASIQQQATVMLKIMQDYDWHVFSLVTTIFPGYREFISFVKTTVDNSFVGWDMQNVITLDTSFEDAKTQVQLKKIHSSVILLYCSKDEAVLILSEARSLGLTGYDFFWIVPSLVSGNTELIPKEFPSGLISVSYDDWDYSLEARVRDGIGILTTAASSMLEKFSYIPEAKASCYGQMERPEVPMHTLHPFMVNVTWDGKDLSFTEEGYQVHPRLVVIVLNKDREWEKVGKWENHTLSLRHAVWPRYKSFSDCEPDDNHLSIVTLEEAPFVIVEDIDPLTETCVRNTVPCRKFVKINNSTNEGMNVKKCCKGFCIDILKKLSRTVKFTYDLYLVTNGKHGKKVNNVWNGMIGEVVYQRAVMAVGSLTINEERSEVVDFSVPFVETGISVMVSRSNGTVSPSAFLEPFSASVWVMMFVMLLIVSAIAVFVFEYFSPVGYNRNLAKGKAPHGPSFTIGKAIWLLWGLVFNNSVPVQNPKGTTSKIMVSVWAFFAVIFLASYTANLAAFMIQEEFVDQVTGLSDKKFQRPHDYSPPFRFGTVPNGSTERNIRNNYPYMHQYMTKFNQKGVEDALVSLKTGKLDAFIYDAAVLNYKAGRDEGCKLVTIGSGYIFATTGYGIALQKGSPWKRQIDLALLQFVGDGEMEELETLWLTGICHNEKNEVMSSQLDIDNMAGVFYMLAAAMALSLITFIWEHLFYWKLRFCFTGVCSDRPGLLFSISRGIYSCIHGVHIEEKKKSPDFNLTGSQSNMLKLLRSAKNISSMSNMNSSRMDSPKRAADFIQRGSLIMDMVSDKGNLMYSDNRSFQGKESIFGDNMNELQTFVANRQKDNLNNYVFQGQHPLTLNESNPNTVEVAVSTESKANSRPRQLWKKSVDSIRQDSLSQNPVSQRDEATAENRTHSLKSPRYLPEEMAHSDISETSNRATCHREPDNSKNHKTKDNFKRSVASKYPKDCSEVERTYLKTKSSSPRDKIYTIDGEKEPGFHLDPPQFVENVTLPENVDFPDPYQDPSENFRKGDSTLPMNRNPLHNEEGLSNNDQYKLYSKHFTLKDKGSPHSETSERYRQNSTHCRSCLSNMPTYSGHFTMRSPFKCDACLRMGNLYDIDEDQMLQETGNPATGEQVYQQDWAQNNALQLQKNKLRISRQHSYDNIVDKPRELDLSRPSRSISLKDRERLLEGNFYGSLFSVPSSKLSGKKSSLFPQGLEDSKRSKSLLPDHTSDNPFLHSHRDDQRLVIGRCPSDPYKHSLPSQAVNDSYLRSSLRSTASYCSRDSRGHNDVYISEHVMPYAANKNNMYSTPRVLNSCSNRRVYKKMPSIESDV
T2 sequence (P41145 whole entry): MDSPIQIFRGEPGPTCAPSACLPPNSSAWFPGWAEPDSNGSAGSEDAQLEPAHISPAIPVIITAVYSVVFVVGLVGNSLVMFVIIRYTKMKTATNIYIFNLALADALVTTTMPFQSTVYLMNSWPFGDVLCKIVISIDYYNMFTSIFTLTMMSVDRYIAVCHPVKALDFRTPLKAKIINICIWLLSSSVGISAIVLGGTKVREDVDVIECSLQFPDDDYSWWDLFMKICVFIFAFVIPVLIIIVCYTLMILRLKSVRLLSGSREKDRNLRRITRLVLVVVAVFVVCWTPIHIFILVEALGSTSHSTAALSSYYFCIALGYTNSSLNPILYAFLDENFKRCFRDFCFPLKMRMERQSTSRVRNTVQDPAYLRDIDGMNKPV
Neuronal acetylcholine receptor; alpha6/beta2, sequence (P17787 whole entry): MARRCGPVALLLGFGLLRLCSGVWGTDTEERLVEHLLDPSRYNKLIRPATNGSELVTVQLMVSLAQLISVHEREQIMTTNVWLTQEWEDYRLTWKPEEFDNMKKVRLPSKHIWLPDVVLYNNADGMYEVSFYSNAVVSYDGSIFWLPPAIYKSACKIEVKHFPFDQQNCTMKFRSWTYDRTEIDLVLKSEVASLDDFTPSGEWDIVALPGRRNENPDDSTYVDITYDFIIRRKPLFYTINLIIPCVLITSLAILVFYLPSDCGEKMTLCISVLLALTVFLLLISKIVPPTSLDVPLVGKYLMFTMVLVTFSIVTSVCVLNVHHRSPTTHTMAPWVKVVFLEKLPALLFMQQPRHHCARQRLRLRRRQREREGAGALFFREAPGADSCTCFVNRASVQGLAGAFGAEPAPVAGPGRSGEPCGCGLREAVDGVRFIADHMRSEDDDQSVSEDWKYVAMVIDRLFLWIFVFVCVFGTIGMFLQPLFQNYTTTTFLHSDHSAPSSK
Neuronal acetylcholine receptor; alpha6/beta2, sequence (Q15825 whole entry): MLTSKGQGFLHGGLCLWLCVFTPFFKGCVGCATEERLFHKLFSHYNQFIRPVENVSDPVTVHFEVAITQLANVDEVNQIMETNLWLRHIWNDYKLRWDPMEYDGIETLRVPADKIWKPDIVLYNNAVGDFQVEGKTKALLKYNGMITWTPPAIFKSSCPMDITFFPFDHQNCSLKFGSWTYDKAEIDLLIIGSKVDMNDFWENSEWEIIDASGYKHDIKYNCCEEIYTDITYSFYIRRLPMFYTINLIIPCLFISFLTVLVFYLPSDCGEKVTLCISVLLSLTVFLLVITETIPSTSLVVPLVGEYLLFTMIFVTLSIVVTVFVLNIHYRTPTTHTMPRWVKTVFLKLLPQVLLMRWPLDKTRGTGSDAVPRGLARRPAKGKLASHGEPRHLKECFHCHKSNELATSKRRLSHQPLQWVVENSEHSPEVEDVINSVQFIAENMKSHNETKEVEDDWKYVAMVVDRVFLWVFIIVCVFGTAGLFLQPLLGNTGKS

Structure (SMILES)	logD [1]	logP [2]	pKa [3]	other results
[18F]CCCc1cncc(OC[C@@H]2C=CCN2)c1	0.71	1.42	8.21	Ki [4]: 0.36 nM
COc1cnc(OCc2cn(-c3ccc([18F])c(C)c3)nn2)nc1	1.55	2.76	0.73	–
CN1C2CCCC1C(c1cncc(-c3cccc([18F])n3)c1)C2 (centres undefined)	–	2.89	9.24	Ki [4]: 0.95 nM
CN1C2CCCC1C(c1cncc(-c3cccnc3[18F])c1)C2 (centres undefined)	–	2.47	9.18	Ki [4]: 0.06 nM
CC(OC(F)F)C(F)(F)F (centres undefined)	2.12	2.47	–	–
[18F]c1ccc2cnn(N=C3NCCN3)c2c1	0.09	1.11	7.94	–
CCCc1cc(Cl)cc2[nH]c(=O)c(-c3cccc(O[11CH3])c3)c(O)c12	–	3.78	9.06	Ki [5]: 7200 nM
CN([11CH3])Cc1ccccc1Sc1ccc(C#N)cc1N	0.89	3.31	9.43	–
N#Cc1cc([18F])cc(C#Cc2ccccn2)c1	3.38	3.25	1.89	–
Oc1ccc2c(c1)CCN(CCCCc1ccccc1[18F])C[C@@H]2O	2.07	4.03	8.68	logD [6]: 2.2
C[C@@H](C[11CH3])CCc1cnc(Cl)c(/C=C/c2ccncc2)c1	–	4.94	–	Ki [4]: 0.077 nM
O=S1(=O)c2cc(N3CCN4CCC3CC4)ccc2-c2cccc([18F])c21	1.72	2.71	8.68	–
NC(=O)c1ccc(Oc2ccc(CN3CCC[C@H]3c3cccnc3)cc2)c([18F])c1	2.07	3.27	8.45	–
C[C@H](c1ccc(Cl)cc1)n1cncc1C(=O)OCC[18F]	3.76	2.25	3.76	–
[11CH3]Oc1cccc(-c2c(O)c3c(I)cc(Cl)cc3[nH]c2=O)c1	1.91	3.81	8.83	Ki [5]: 10300 nM
CCOC(=O)c1ncn2c1CN([11CH3])C(=O)c1cc(N=[N+]=[N-])ccc1-2	–	–	8.45	Ki [7]: ~0.5 nM
CCOC(=O)c1ncn2c1CN(C)C(=O)c1cc([18F])ccc1-2	–	1.11	0.86	–
C[11CH2]OC(=O)c1cncn1[C@H](C)c1ccccc1	3.05	1.83	4.23	–
CCN(CCF)C[C@@H]1CN(C(=O)CO[11CH3])CCN1C(=O)Cc1ccc(C)c(C)c1	–	1.53	7.51	–
[11CH3]OCc1scnc1N1CCN(C[C@H]2COc3ccccc3O2)CC1	2.02	2.65	7.21	–
[11CH3]n1c2c(c3ccccc31)C[C@@]1(O)[C@H]3Cc4ccc(O)c5c4[C@@]1(CCN3CC1CC1)[C@H]2O5	–	3.31	14.2	–
CCOC(=O)c1ncn2c1CN([11CH3])C(=O)c1cc(F)ccc1-2	–	1.11	0.86	–

Structure (SMILES)	logD [1]	logP [2]	pKa [3]	other results
CCN(CCF)C[C@@H]1CN(C(=O)COC)CCN1C(=O)Cc1ccc(C)c(C)c1	–	–	–	Ratio Ki [8]: 323; Ratio Ki [9]: 17; Ki [10]: 0.43 nM
CC(C)C[C@H](N)[11C](=O)O	-1.7	-0.29	10.2	–
[18F]c1ncccc1OC[C@H]1CCN1	–	–	8.95	–
CN1CC=C[C@H]1COc1cccnc1[18F]	0.3	1.21	8.09	Ki [4]: 0.5 nM
N[C@H](C[C@H]1CC(C(=O)O)=NN1c1ccc(CCCF)cc1)C(=O)O	–	–	–	Ki [5]: 52 nM
FC(F)OC(F)C(F)(F)F (centres undefined)	1.88	2.16	–	–
[18F]c1ccc(C2CC3CCCC2N3)cn1 (single isomer, unassigned; (-))	-0.76	1.75	9.28	–
[11CH3]C(=O)c1ccc2c(c1)CCN(CCCCc1ccccc1)CC2O (centres undefined)	2.94	4.14	8.78	–
CC(=O)N(Cc1ccccc1OCC[18F])c1ccccc1Oc1ccccc1	–	4.51	–	–
FC(F)([18F])C(Cl)Br (centres undefined)	2.33	2.28	–	–
C[C@H](c1ccccc1)n1cncc1C(=O)OCC[18F]	2.99	1.69	3.83	Ratio [11]: 14.48
CCN(CC)C[C@@H]1CN(C(=O)CO[11CH3])CCN1C(=O)Cc1ccc(C)c(C)c1	–	1.67	8.6	Ki [10]: 0.28 nM
CN([11CH3])[C@]1(c2ccccc2Cl)CCCCC1=O	2.93	2.84	6.92	Kd [12]: 4000 nM; half-life [13]: > 15 min; Kd [14]: 7000 nM; Kd [15]: 14000 nM
CN(C)c1cccc2c(S(=O)(=O)N/N=C/c3ccc([18F])cc3)cccc12	3.92	4.94	–	–
FCOC(C(F)(F)F)C(F)(F)[18F] (centres undefined)	2.5	2.24	–	–
CCN(CC)C[C@@H]1CN(C(=O)COC)CCN1C(=O)Cc1ccc(C)c(C)c1	–	–	–	Ki [10]: 0.28 nM
CCOC(=O)c1ncn2c1CN(C)C(=O)c1cc(N=[N+]=[N-])ccc1-2 [Ro-154513]	–	–	–	Ki [16]: 7 nM; Ki [17]: 0.7 nM; Ki [18]: 7 nM; Ki [19]: 7 nM
[18F]CCCc1cncc(OC[C@@H]2CCN2)c1	-1.44	0.86	9.09	Ki [4]: 0.67 nM
Cc1cn([C@H]2C[C@H]([18F])[C@@H](CO)O2)c(=O)[nH]c1=O [ALOVUDINE F-18]	-0.2	-0.41	13.7	–
[11CH3]OC(=O)c1cncn1Cc1ccccc1	2.19	1.18	4.08	–
N[11C](=O)c1ccc(Oc2ccc(CN3CCC[C@H]3c3cccnc3)cc2)c(Cl)c1	2.71	3.67	8.45	Kd [20]: 0.028 nM; Ki [10]: 0.72 nM; Ki (Mu-type opioid receptor): 25.8 nM
